Data taken from PubChem BioAssay AID652167 (The Scripps Research Institute Molecular Screening Center, 2013).
Calls of active or inactive are those of the source. How the calls were made is not given here.

Tests used:
[1] = cytotoxicity by WST viability readout, late-stage follow-up, cytotoxicity control for NOD2-RIPK2 interaction inhibitor project, cell-based, absorbance (AID 652167); conditions: WST cytotoxicity, absorbance 620 nm; WST absorbance; at 10 µM; stronger effect = lower value
[2] = test system: WST cytotoxicity, absorbance 620 nm; assay: as above

Compound | absorbance [1] | IC50 [2]
O=[N+]([O-])c1cc(S(=O)(=O)N2CCCCCC2)ccc1F | 0.991 | > 10 µM (inactive)
Cc1ccc(S(=O)(=O)N2CCCCCC2)cc1[N+](=O)[O-] | 0.99 | > 10 µM (inactive)
Cc1nc([N+](=O)[O-])c(Br)n1Cc1ccc(Cl)c(Cl)c1 | 0.974 | > 10 µM (inactive)
O=S(=O)(c1ccc(F)cc1)N1CCCCCC1 | 1 | > 10 µM (inactive)
Cc1nc([N+](=O)[O-])c(Br)n1Cc1ccccc1 | 0.991 | > 10 µM (inactive)
O=S(=O)(c1ccccc1)N1CCCCCC1 | 0.969 | > 10 µM (inactive)
Cc1ccc(C(C[N+](=O)[O-])n2nc(C)cc2C)cc1 (configuration not stated) | 0.968 | > 10 µM (inactive)
Cc1cc(S(=O)(=O)N2CCCCCC2)ccc1F | 1 | > 10 µM (inactive)
COc1ccc(C(C[N+](=O)[O-])n2nc(C)cc2C)cc1 (configuration not stated) | 0.973 | > 10 µM (inactive)
O=[N+]([O-])c1cccc(S(=O)(=O)N2CCCCCC2)c1 | 0.999 | > 10 µM (inactive)
Cc1ncc([N+](=O)[O-])n1Cc1ccc(Cl)c(Cl)c1 | 1.01 | > 10 µM (inactive)
